This passage reports IC50 results from US20220324865A1 (Bayer Aktiengesellschaft, priority 2018, published 2022).

SMILES strings stand for the structures.

The target in this assay is T1, human EP3 receptor (Homo sapiens, UniProt P43115).
T1 construct: expressed in transfected cells; host or cells: CHO K1 (Chinese Hamster Ovary), stably co-transfected with Galpha16 and mitochondrial clytin
T1 sequence (P43115 1-390): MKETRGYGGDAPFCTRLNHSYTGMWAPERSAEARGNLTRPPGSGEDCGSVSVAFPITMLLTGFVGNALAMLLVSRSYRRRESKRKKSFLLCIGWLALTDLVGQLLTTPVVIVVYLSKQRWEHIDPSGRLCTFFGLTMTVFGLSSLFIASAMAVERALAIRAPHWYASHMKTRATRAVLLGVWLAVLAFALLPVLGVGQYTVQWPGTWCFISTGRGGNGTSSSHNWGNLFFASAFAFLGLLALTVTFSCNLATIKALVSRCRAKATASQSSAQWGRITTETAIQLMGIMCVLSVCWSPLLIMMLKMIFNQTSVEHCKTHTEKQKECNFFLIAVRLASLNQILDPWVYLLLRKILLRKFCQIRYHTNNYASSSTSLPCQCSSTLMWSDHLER
The assay is described as follows: Cellular in vitro assay for determining EP3 receptor activity (human EP3 cell line, sulprostone-stimulated calcium luminescence). Format: cell-based. Particulars: CHO cells expressing human EP3 and mitochondrial Clytin; antagonist mode, sulprostone at EC50; read-out: EP3 CHO mtCLY ANTAG IC50. The method, boiled down: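 Antagonist activity was measured as inhibition of the luminescent calcium signal elicited by EC50 sulprostone, following 10 min compound pretreatment. The cell line was recombinant CHO K1 co-expressing human EP3, Gα16 and the photoprotein Clytin, reconstituted with coelenterazine.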
For `COc1ccc2c(c1)C(NC(=O)c1nn3cc(-c4cnc5cccc(C)c5c4)[nH]c(=O)c3c1C(C)C)CC(C)(C)O2` (stereo not shown) [Example 4-74, 3-Isopropyl-N-(6-methoxy-2,2-dimethyl-3,4-dihydro-2H-chromen-4-yl)-6-(5-methylquinolin-3-yl)-4-oxo-4,5-dihydropyrazolo[1,5-a]pyrazine-2-carboxamide], the IC50 (commonly the concentration that gives 50% inhibition) is 6.05 nM.

For `O=C(NCCc1ccc(F)cc1)c1cc2c(=O)[nH]c(-c3ccc4ccccc4c3)cn2n1` [Example 2-7, N-[2-(4-Fluorophenyl)ethyl]-6-(2-naphthyl)-4-oxo-4,5-dihydropyrazolo[1,5-a]pyrazine-2-carboxamide], the IC50 came to 4.7 nM.

With `O=C(NC1CCN(CC(F)F)C1)c1nn2cc(-c3ccc4ccccc4c3)[nH]c(=O)c2c1C(F)(F)F` (single isomer, unassigned) [6-520], the IC50 was determined as 3.15 nM.

For `O=C(N[C@H](CCO)c1ccc(F)cc1)c1cc2c(=O)[nH]c(-c3ccc4c(c3)CCCC4)cn2n1` [Example 1-100, N-[(1R)-1-(4-Fluorophenyl)-3-hydroxypropyl]-4-oxo-6-(5,6,7,8-tetrahydronaphthalen-2-yl)-4,5-dihydropyrazolo[1,5-a]pyrazine-2-carboxamide], the half-maximal inhibitory concentration (IC50) was found to be 0.965 nM.

For the compound `Cc1cccc2ncc(-c3cn4nc(C(=O)N[C@@H](C)c5cnccn5)c(C(C)C)c4c(=O)[nH]3)cc12` [Example 4-28, 6-(5-Methylquinolin-3-yl)-4-oxo-3-(propan-2-yl)-N-[(7S)-1-(pyrazin-2-yl)ethyl]-4,5-dihydropyrazolo[1,5-a]pyrazine-2-carboxamide], the IC50 was found to be 2.15 nM. Take `Cc1ccc(-c2cn3nc(C(=O)N[C@H](CCO)c4ccc(F)cc4)c(C#N)c3c(=O)[nH]2)cc1C` [Example 1-58, 3-Cyano-6-(3,4-dimethylphenyl)-N-[(1R)-1-(4-fluorophenyl)-3-hydroxpropyl]-4-oxo-4,5-dihydropyrazolo[1,5-a]pyrazine-2-carboxamide]: the IC50 is 1.5 nM. As for `COC[C@H](NC(=O)c1cc2c(=O)[nH]c(-c3ccc4c(c3)OCCO4)cn2n1)c1ccccc1` [6-46], the IC50 stood at 2.43 nM.

For the compound `O=C(NCC(O)C(F)(F)F)c1nn2cc(-c3ccc(Cl)c(Cl)c3)[nH]c(=O)c2c1C1CC1` (single isomer, unassigned) [6-417], the concentration for half-maximal inhibition (IC50) came to 1.85 nM.

Turning to `Cc1ccc(-c2cn3nc(C(=O)N[C@@H](C4CC4)C(C)(C)O)c(C4CC4)c3c(=O)[nH]2)cc1Cl` [6-275], the IC50 was found to be 2.85 nM. Consider `Cc1c(C(=O)NC(C)c2ccc(S(N)(=O)=O)cc2)nn2c(C)c(-c3ccc4ccccc4c3)[nH]c(=O)c12` (stereo not shown) [Example 3-18, 3,7-Dimethyl-6-(2-naphthyl)-4-oxo-N-[1-(4-sulfamoylphenyl)ethyl]-5H-pyrazolo[1,5-a]pyrazine-2-carboxamide], for which the IC50 is 3.75 nM. In the case of `C[C@@H](NC(=O)c1cc2c(=O)[nH]c(-c3ccc4c(c3)N(C)CCO4)cn2n1)c1ccc(F)cc1` [Example 1-102, N-[(1R)-1-(4-Fluorophenyl)ethyl]-6-(4-methyl-3,4-dihydro-2H-1,4-benzoxazin-6-yl)-4-oxo-4,5-dihydropyrazolo[1,5-a]pyrazin-2-carboxamide], the IC50 was found to be 1.35 nM. Turning to `CC(COc1cc(Cl)cc(Cl)c1)NC(=O)c1nn2cc(-c3ccc4ccccc4c3)[nH]c(=O)c2c1C(F)(F)F` (stereo not shown) [Example 1-118, N-[2-(3,5-Dichlorophenoxy)-1-methylethyl]-6-(2-naphthyl)-4-oxo-3-(trifluoromethyl)-5H-pyrazolo-[1,5-a]pyrazine-2-carboxamide], the IC50 stood at 3.95 nM. Regarding `CC(NC(=O)c1cc2c(=O)[nH]c(-c3ccc4ccccc4c3)cn2n1)c1ccc(O)cc1` (single isomer, unassigned) [6-542], the IC50 came out at 10.5 nM. The value for `Cc1ccc(-c2cn3nc(C(=O)N[C@@H](c4ccc(F)cc4)C(F)(F)CO)cc3c(=O)[nH]2)cc1F` [6-645] was 6 nM; that for `COCc1c(C(=O)N[C@@H](c2ccc(F)cc2)C(F)(F)CO)nn2cc(-c3ccc(Cl)c(C)c3)[nH]c(=O)c12` [6-621] was 1.15 nM; that for `Cc1c(C(=O)N[C@@H](C)c2ccccc2)nn2c(C)c(-c3ccc4ccccc4c3)[nH]c(=O)c12` [Example 3-22, 3,7-Dimethyl-6-(naphthalen-2-yl)-4-oxo-N-[(7S)-1-phenylethyl]-4,5-dihydropyrazolo[1,5-a]pyrazine-2-carboxamide] was 2.35 nM. In the case of `Cc1cccc2ncc(-c3cn4nc(C(=O)NCc5ccncc5)c(C(C)C)c4c(=O)[nH]3)cc12` [Example 4-25, 6-(5-Methylquinolin-3-yl)-4-oxo-3-(propan-2-yl)-N-[(pyridin-4-yl)methyl]-4,5-dihydropyrazolo[1,5-a]pyrazine-2-carboxamide], the IC50 is 3.25 nM.

Turning to `Cc1c(C(=O)N[C@H](C)c2ccccc2)nn2c(C)c(-c3ccc4ccccc4c3)[nH]c(=O)c12` [Example 3-65, 3,7-Dimethyl-6-(naphthalen-2-yl)-4-oxo-N-[(1R)-1-phenylethyl]-4,5-dihydropyrazolo[1,5-a]pyrazine-2-carboxamide], the IC50 was determined as 2 nM. Consider `Cc1ccc(-c2cn3nc(C(=O)N[C@@H](C)C4CC4)c(C4CC4)c3c(=O)[nH]2)cc1F` [6-380], for which the IC50 is 1.3 nM. In the case of `O=C(NC1(c2ccc(F)cc2)CC1)c1cc2c(=O)[nH]c(-c3ccc4c(c3)OCCO4)cn2n1` [6-23], the IC50 came out at 3.1 nM.

With `CC(C)C(CNC(=O)c1cc2c(=O)[nH]c(-c3ccc4ccccc4c3)cn2n1)n1cc(Cl)cn1` (stereo not shown) [Example 2-22, N-[2-(4-Chlor-1H-pyrazol-1-yl)-3-methylbutyl]-6-(2-naphthyl)-4-oxo-4,5-dihydropyrazolo[1,5-a]pyrazine-2-carboxamide], the IC50 was determined as 3.85 nM. With `CC[C@@H](C)NC(=O)c1nn2cc(-c3ccc(C)c(C)c3)[nH]c(=O)c2c1C(F)(F)F` [6-113] the figure was 3.4 nM; with `COc1ccc(C(NC(=O)c2nn3c(C)c(-c4ccc5ccccc5c4)[nH]c(=O)c3c2C)C2CC2)cc1` (stereo not shown) [Example 3-35, N-[Cyclopropyl(4-methoxyphenyl)methyl]-3,7-dimethyl-6-(2-naphthyl)-4-oxo-5H-pyrazolo[1,5-a]pyrazine-2-carboxamide], 5.05 nM; with `O=C(NC(CN1CCCC1)c1ccc(F)cc1)c1cc2c(=O)[nH]c(-c3ccc4ccccc4c3)cn2n1` (stereo not shown) [Example 1-44, N-[1-(4-Fluorophenyl)-2-(pyrrolidin-1-yl)ethyl]-6-(2-naphthyl)-4-oxo-5H-pyrazolo[1,5-a]pyrazine-2-carboxamide], 8.97 nM. On to `C[C@H](NC(=O)c1cc2c(=O)[nH]c(-c3ccc4ccccc4c3)cn2n1)c1ccc(F)cc1` [6-79], for which the IC50 is 4.57 nM. The value for `COc1ccc(C(C)NC(=O)c2nn3cc(-c4ccc5ccccc5c4)[nH]c(=O)c3c2C#N)cn1` (stereo not shown) [Example 3-50, 3-Cyano-N-[1-(6-methoxy-3-pyridyl)ethyl]-6-(2-naphthyl)-4-oxo-5H-pyrazolo[1,5-a]pyrazine-2-carboxamide] was 1.75 nM; that for `C[C@@H](NC(=O)c1cc2c(=O)[nH]c(-c3ccc4ccccc4c3)cn2n1)c1cccc2ccccc12` [Example 2-27, 6-(2-Naphthyl)-N-[(7R)-1-(1-naphthyl)ethyl]-4-oxo-4,5-dihydropyrazolo[1,5-a]pyrazine-2-carboxamide] was 3.25 nM. With `Cc1ccc(-c2cn3nc(C(=O)N[C@@H](c4ccccc4)[C@@H](O)CO)cc3c(=O)[nH]2)cc1C` [6-353] the figure was 3.73 nM.
